The results in this text go back to PubChem BioAssay (NCI).

Some test systems named below: MDA-N; 786-0 renal; ACHN renal; MCF7 breast; MDA-MB-231 breast; SF-295 CNS; SNB-75 CNS; A498 renal; HL-60(TB) leukemia; SK-MEL-28 melanoma; SK-MEL-5 melanoma; UO-31 renal; MOLT-4 leukemia; HCT-15 colon; COLO 205 colon; PC-3 prostate.
Assay in all cases: NCI anticancer screen, dose series, 48 h

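Method: 48-hour compound exposure of cells in 96-well plates, five concentrations, linear interpolation of endpoints. At the TGI there is no net growth.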

In the case of `COc1ccc([N+](=O)[O-])c2c(NCCCN(C)C)ccnc12`, the TGI in the experiment on MDA-N was 27 µM; in the experiment on 786-0 renal, 30.6 µM; in the experiment on ACHN renal, 14.5 µM; in the experiment on MCF7 breast it was > 38.8 µM; in the experiment on MDA-MB-231 breast, > 73.8 µM; with SF-295 CNS, 24.8 µM. The TGI is 15.8 µM in the experiment on SNB-75 CNS; 5.18 µM in the experiment with A498 renal; 22.8 µM with HL-60(TB) leukemia; > 100 µM in the experiment with SK-MEL-28 melanoma; 5.22 µM with SK-MEL-5 melanoma; 17.3 µM in the experiment on UO-31 renal. Moreover, the TGI in the experiment on MOLT-4 leukemia stood at 8.12 µM; in the experiment with HCT-15 colon, 4.95 µM; in the experiment with COLO 205 colon, 7.17 µM; with PC-3 prostate, 30.8 µM.

In the case of `Cc1c(C)c(C)c(Cn2[nH]c(=O)n(C)c2=O)c(C)c1C`, the TGI with MDA-N, in the experiment with 786-0 renal, with ACHN renal, in the experiment with MCF7 breast, with MDA-MB-231 breast and in the experiment on SF-295 CNS was > 100 µM each time. For the same molecule, the TGI with SNB-75 CNS, in the experiment with A498 renal, in the experiment with HL-60(TB) leukemia, with SK-MEL-28 melanoma, in the experiment on SK-MEL-5 melanoma and in the experiment with UO-31 renal was > 100 µM throughout. Further, the TGI in the experiment with MOLT-4 leukemia, in the experiment on HCT-15 colon, in the experiment with COLO 205 colon and in the experiment with PC-3 prostate was > 100 µM in each case.

Take `NC(N)=NS(=O)(=O)c1ccc(N/N=C2/CCOC2=O)cc1`: the TGI with MDA-N, with 786-0 renal, with ACHN renal, in the experiment with MCF7 breast, with MDA-MB-231 breast and in the experiment with SF-295 CNS was > 100 µM throughout. The TGI is 58.7 µM with SNB-75 CNS; > 100 µM with A498 renal; > 100 µM with HL-60(TB) leukemia; > 100 µM in the experiment on SK-MEL-28 melanoma; > 100 µM with SK-MEL-5 melanoma; > 100 µM in the experiment on UO-31 renal. In addition, the TGI in the experiment on MOLT-4 leukemia, in the experiment with HCT-15 colon, with COLO 205 colon and in the experiment with PC-3 prostate was > 100 µM in each case.

Turning to `CC1(C)[C@@H]2C[C@H]1[C@@H](Cc1cccc(C[C@H]3c4cc(-c5ccccn5)ncc4[C@H]4C[C@@H]3C4(C)C)c1)c1cc(-c3ccccn3)ncc12`, the TGI was > 100 µM in the experiment on MDA-N; > 47.6 µM in the experiment on 786-0 renal; > 66.6 µM in the experiment with ACHN renal; > 100 µM in the experiment with MCF7 breast; > 100 µM in the experiment with MDA-MB-231 breast; > 100 µM in the experiment on SF-295 CNS. Further, the TGI was > 100 µM in the experiment on SNB-75 CNS; > 93.2 µM in the experiment on A498 renal; 4.33 µM with HL-60(TB) leukemia; > 100 µM with SK-MEL-28 melanoma; > 38 µM with SK-MEL-5 melanoma; 8.82 µM in the experiment on UO-31 renal. The TGI in the experiment on MOLT-4 leukemia was > 100 µM; with HCT-15 colon, > 100 µM; in the experiment with COLO 205 colon it was > 65.5 µM; in the experiment on PC-3 prostate, > 100 µM.

Turning to `CCOC(=O)c1nc2ccc(C(F)(F)F)cc2nc1Nc1cc(OC)c(OC)c(OC)c1`, the TGI with MDA-N, with 786-0 renal, with ACHN renal, in the experiment with MCF7 breast, with MDA-MB-231 breast and with SF-295 CNS was > 100 µM throughout. Further, the TGI in the experiment on SNB-75 CNS, in the experiment on A498 renal, in the experiment on HL-60(TB) leukemia, in the experiment on SK-MEL-28 melanoma, with SK-MEL-5 melanoma and in the experiment on UO-31 renal was > 100 µM throughout. Moreover, the TGI with MOLT-4 leukemia, with HCT-15 colon, in the experiment on COLO 205 colon and in the experiment with PC-3 prostate was > 100 µM throughout.

For the molecule `S=C(N/N=C(\c1ccccc1)c1ccccn1)NC1CCCCC1`, the TGI with MDA-N was > 100 µM; in the experiment with 786-0 renal, > 100 µM; with ACHN renal, > 100 µM; in the experiment on MCF7 breast, > 100 µM; in the experiment with MDA-MB-231 breast it was > 100 µM; in the experiment on SF-295 CNS it was > 80.1 µM. The TGI in the experiment with SNB-75 CNS, in the experiment with A498 renal, with HL-60(TB) leukemia, in the experiment with SK-MEL-28 melanoma, in the experiment on SK-MEL-5 melanoma and with UO-31 renal was > 100 µM throughout. For the same molecule, the TGI with MOLT-4 leukemia, in the experiment on HCT-15 colon, in the experiment on COLO 205 colon and in the experiment with PC-3 prostate was > 100 µM each time.

Turning to `CC(=O)Nc1ccc2nc(-c3ccccn3)c(-c3ccccn3)nc2c1`, the TGI in the experiment on MDA-N, in the experiment with 786-0 renal, in the experiment on ACHN renal, in the experiment with MCF7 breast, in the experiment with MDA-MB-231 breast and in the experiment on SF-295 CNS was > 100 µM each time. For the same molecule, the TGI with SNB-75 CNS, in the experiment with A498 renal, in the experiment with HL-60(TB) leukemia, with SK-MEL-28 melanoma, with SK-MEL-5 melanoma and with UO-31 renal was > 100 µM throughout. The TGI in the experiment with MOLT-4 leukemia, in the experiment on HCT-15 colon, in the experiment on COLO 205 colon and in the experiment with PC-3 prostate was > 100 µM each time.

For `CSc1nc(C)cc(Nc2ccc(O)c(CN3CCOCC3)c2)n1`, the TGI with MDA-N, in the experiment on 786-0 renal, in the experiment on ACHN renal, with MCF7 breast, in the experiment with MDA-MB-231 breast and in the experiment on SF-295 CNS was > 100 µM throughout. For the same molecule, the TGI in the experiment on SNB-75 CNS, in the experiment on A498 renal, in the experiment with HL-60(TB) leukemia, in the experiment on SK-MEL-28 melanoma, in the experiment with SK-MEL-5 melanoma and with UO-31 renal was > 100 µM each time. Moreover, the TGI in the experiment on MOLT-4 leukemia, with HCT-15 colon, in the experiment with COLO 205 colon and in the experiment on PC-3 prostate was > 100 µM throughout.

`O=C(Cc1ccccc1F)NC1=C(Cl)C(=O)c2ccccc2C1=O`: the TGI stood at 11.8 µM in the experiment on MDA-N; 9.68 µM in the experiment on 786-0 renal; 2.02 µM with ACHN renal; 21.4 µM in the experiment on MCF7 breast; 13.8 µM in the experiment with MDA-MB-231 breast; 11.8 µM with SF-295 CNS. For the same molecule, the TGI was 8.06 µM in the experiment with SNB-75 CNS; 33.4 µM with A498 renal; 0.8 µM in the experiment on HL-60(TB) leukemia; 9.6 µM in the experiment with SK-MEL-28 melanoma; 4.37 µM with SK-MEL-5 melanoma; 8.98 µM in the experiment with UO-31 renal. In addition, the TGI in the experiment on MOLT-4 leukemia stood at 6.47 µM; in the experiment on HCT-15 colon it was 13.3 µM; with COLO 205 colon, 6.9 µM; with PC-3 prostate, 11.9 µM.
